Measurements reported in ChEMBL document CHEMBL1137853, “Discovery of potent and selective beta-homophenylalanine based dipeptidyl peptidase IV inhibitors” (Bioorg Med Chem Lett, 2004).

What was measured:
[1] = molecular target: Dipeptidyl peptidase 4 (Homo sapiens, UniProt P27487); experiment: Inhibitory concentration against Dipeptidyl peptidase IV
[2] = molecular target: Dipeptidyl peptidase 2 (Homo sapiens, UniProt Q9UHL4); experiment: Inhibitory concentration against quiescent cell proline dipeptidase
[3] = Plasma clearance in rat at 1 mpk iv; type: ADME, organism-based; details: 1 mg/kg
[4] = Plasma clearance in rat at 2 mpk po; type: ADME, organism-based; details: 2 mg/kg, read-out: Clearance
[5] = Bioavailability in rat (dose 1 mg/kg i.v.); type: ADME, organism-based; details: in vivo, iv
[6] = Bioavailability in rat (dose 2 mg/kg p.o.); type: ADME, organism-based; details: in vivo, po
[7] = Half life in rat at 1 mpk iv; type: ADME, organism-based; details: in vivo, 1 mg/kg
[8] = Half life in rat at 2 mpk po; type: ADME, organism-based; details: in vivo, 2 mg/kg

Chain of Dipeptidyl peptidase 4 (P27487 whole entry): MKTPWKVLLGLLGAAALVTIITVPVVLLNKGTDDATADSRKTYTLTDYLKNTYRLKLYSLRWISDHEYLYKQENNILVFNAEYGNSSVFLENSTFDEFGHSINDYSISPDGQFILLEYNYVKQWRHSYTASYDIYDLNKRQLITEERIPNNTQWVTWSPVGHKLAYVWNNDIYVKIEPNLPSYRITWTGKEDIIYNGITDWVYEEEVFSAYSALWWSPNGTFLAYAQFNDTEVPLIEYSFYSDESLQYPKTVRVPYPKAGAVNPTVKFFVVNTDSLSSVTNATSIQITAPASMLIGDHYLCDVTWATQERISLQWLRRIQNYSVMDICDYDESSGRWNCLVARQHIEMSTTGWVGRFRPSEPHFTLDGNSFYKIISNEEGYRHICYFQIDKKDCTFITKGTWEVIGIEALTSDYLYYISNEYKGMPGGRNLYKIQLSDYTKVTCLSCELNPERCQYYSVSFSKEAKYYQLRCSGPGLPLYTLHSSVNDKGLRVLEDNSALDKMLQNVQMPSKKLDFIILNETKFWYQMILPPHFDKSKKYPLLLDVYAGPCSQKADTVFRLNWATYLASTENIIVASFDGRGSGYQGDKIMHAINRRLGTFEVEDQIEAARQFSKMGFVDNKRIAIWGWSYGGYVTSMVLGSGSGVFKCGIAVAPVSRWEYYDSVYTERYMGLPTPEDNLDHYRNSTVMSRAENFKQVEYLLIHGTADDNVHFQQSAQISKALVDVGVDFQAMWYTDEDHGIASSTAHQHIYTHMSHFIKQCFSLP

IC50 [1]	IC50 [2]	SMILES	further results
46.9 µM	–	N[C@@H](CC(=O)N1CCSC1)Cc1ccoc1	–
27.5 µM	–	N[C@@H](CC(=O)N1CCSC1)CC1CCCC1	–
2.03 µM	48.5 µM	N[C@@H](CC(=O)N1CCSC1)Cc1cccc(F)c1	–
5.7 µM	–	N[C@@H](CC(=O)N1CCSC1)Cc1ccsc1	–
51 µM	–	N[C@@H](CC(=O)N1CCSC1)Cc1ccncc1	–
7.69 µM	–	N[C@@H](CC(=O)N1CCSC1)Cc1ccc(C(F)(F)F)cc1	–
–	> 100 µM	N[C@@H](CC(=O)N1CCSC1)Cc1ccccc1	–
3.03 µM	36.2 µM	N[C@@H](CC(=O)N1CCSC1)Cc1ccc(Cl)cc1	–
0.589 µM	56.1 µM	N[C@@H](CC(=O)N1CCSC1)Cc1ccc(F)cc1F	–
2.03 µM	48.5 µM	N[C@@H](CC(=O)N1CCSC1)Cc1ccc(Cl)c(Cl)c1	–
1.55 µM	24.3 µM	N[C@@H](CC(=O)N1CCSC1)Cc1ccc([N+](=O)[O-])cc1	–
9.4 µM	–	N[C@@H](CC(=O)N1CCSC1)Cc1cccc(F)c1F	–
1.7 µM	33.9 µM	N[C@@H](CC(=O)N1CCSC1)Cc1ccc(F)c(F)c1	–
39.6 µM	–	N[C@@H](CC(=O)N1CCSC1)Cc1ccccn1	–
2.52 µM	> 100 µM	N#Cc1ccccc1C[C@@H](N)CC(=O)N1CCSC1	–
44.9 µM	–	N[C@@H](CC(=O)N1CCSC1)Cc1cccnc1	–

IC50 [1]	IC50 [2]	SMILES	further results
0.981 µM	92.1 µM	Cc1ccccc1C[C@@H](N)CC(=O)N1CCSC1	–
3.61 µM	24.6 µM	N[C@@H](CC(=O)N1CCSC1)Cc1cccc(C(F)(F)F)c1	–
2.26 µM	82.1 µM	N[C@@H](CC(=O)N1CCSC1)Cc1ccccc1C(F)(F)F	–
0.0001 µM	–	COc1cc(OC)cc(-c2nc(-c3ccc(Cl)cc3Cl)c(CN(C)C)c(N(C)C)n2)c1	–
0.931 µM	49.7 µM	N[C@@H](CC(=O)N1CCSC1)Cc1ccccc1F	–
8.48 µM	–	N[C@@H](CC(=O)N1CCSC1)Cc1c(F)cccc1F	–
33 µM	–	N[C@@H](CC(=O)N1CCSC1)CC1CCCCC1	–
16.5 µM	–	N[C@H](CCc1ccccc1)CC(=O)N1CCSC1	–
–	–	N[C@@H](CC(=O)N1CCSC1)Cc1cc(F)c(F)cc1F	clearance [3]: 120 mL/min/kg; CL/F [4]: 120 mL/min/kg; bioavailability [5]: 3%; bioavailability [6]: 3%; half-life [7]: 66 min; half-life [8]: 66 min
3.28 µM	67.6 µM	N[C@@H](CC(=O)N1CCSC1)Cc1ccc(F)cc1	–
> 100 µM	–	N[C@@H](CC(=O)N1CCSC1)c1ccccc1	–
14.9 µM	–	N#Cc1ccc(C[C@@H](N)CC(=O)N2CCSC2)cc1	–
10.7 µM	5.78 µM	N[C@@H](CC(=O)N1CCSC1)Cc1ccc(I)cc1	–
8.95 µM	29.8 µM	N#Cc1cccc(C[C@@H](N)CC(=O)N2CCSC2)c1	–
0.27 µM	77.6 µM	N[C@@H](CC(=O)N1CCSC1)Cc1cc(F)ccc1F	clearance [3]: 110 mL/min/kg; CL/F [4]: 110 mL/min/kg; bioavailability [5]: 2%; bioavailability [6]: 2%; half-life [7]: 30 min; half-life [8]: 30 min
